Three compounds from US9271981B2, “Pyrrolo[2,3-D]pyrimidine compounds” (Zoetis Services LLC, priority 2008, dated 2016) can be followed below.

For experiment [1], the system named is T-cell proliferation in canine whole blood. Briefly: Canine in vitro T-cell Proliferation Assay. The following applies: Canis lupus familiaris, ConA + canine IL-2, tritiated thymidine. It counts as cell-based. How it is done:
Methods: Canine whole blood was collected in sodium heparin tubes from 29 beagle dogs and 23 mixed breed dogs. Whole blood (20 μL) was plated in 96-well plates (Costar 3598) with 180 μL of medium (RPMI 1640, Gibco #21870-076, with 1% heat inactivated fetal bovine serum, Gibco #10082-39, 292 μg/ml L-glutamine, Gibco #250030-081, 100 u/ml penicillin and 100 μg streptomycin per ml, Gibco #15140-122) containing vehicle control or test compound (0.001 to 10 μM), concanavalin A (ConA; 1 μg/ml, Sigma C5275), and canine interleukin-2 (IL-2; 50 ng/ml, R&D Systems 1815-CL/CF). Wells containing whole blood, medium with vehicle control and no ConA or IL-2 were used as background controls. Plates were incubated at 37° C. for 48 hours. Tritiated thymidine, 0.4 μCi/well (Perkin Elmer, Net027A-005MC), was added for 20 additional hours. Plates were frozen and then thawed, washed and filtered using a Brandel MLR-96 cell harvester and prewet filter mats (Wallac 1205-401, Perkin Elmer). Filters were dried at 60° C. for one hour (Precision 16EG convection oven) and placed into filter sample bags (Wallac 1205-411, Perkin Elmer) with 10 mL of scintillant (Wallac 1205-440, Perkin Elmer). Sealed filters were counted on a LKB Wallac 1205 Betaplate liquid scintillation counter. Data were collected via Gterm Betaplate program v1.1 (Wallac copyright 1989-1990) and transformed into percent inhibition, calculated using the following formula: […]

In the next experiment the test system is flea allergic dogs. Briefly: Reducing Flea-associated Pruritus and Dermatitis Assay. It counts as in vivo. The following applies: for pruritus as compared to placebo (seconds of pruritus per 4 hour recording): 10% level of significance. As to the method: Twenty eight male and female dogs of mixed breeds ranging in weight from 5-35 kg and greater than one year of age were infested with approximately 100 unfed adult cat fleas (Ctenocephalides felis) 14 days prior to the start of dosing and reinfested with 30 fleas per dog every 4 days throughout the study. Seven days before dosing, twenty four dogs were randomized into three different treatment groups, placebo, 0.5 mg/kg or 0.25 mg/kg of the compound of Example 1b, based on visual analog scale (VAS) scores for skin lesions. Treatments were given orally twice a day for 28 days, and pruritic behavior as well as erythema and skin lesions were was assessed during the study. Pruritic behavior was recorded by placing dogs into pens with video recording capability, and recording their activity over 4 hours. Pruritic activity was quantitated by determining how many seconds the dogs spent scratching. Skin lesions were recorded by image capture of abdominal, inguinal region and the severity ranked according to a visual analog scale (VAS).
Video captured elapsed time of pruritic behavior was analyzed using a mixed linear model for repeated measures. The model included fixed effects of treatment and day of study and the interaction of treatment and day of study. Random effects included block, the interaction of block and treatment and error. Baseline data for pruritic behavior (day-1) were used as covariate in the analysis of pruritic behavior. Least squares means were used as estimates of treatment means. Standard errors of least squares means were estimated and 90% confidence intervals were constructed. Geometric means were computed from the least squares means for log-transformed data. A priori contrasts were used to assess treatment. Treatment differences were assessed at the 10% level of significance (P≦0.10).

The IC50 is the midpoint of a concentration-inhibition curve.

As to `CNS(=O)(=O)C[C@H]1CC[C@H](N(C)c2ncnc3[nH]ccc23)CC1` [Example 1a, N-methyl-1-{trans-4-[methyl(7H-pyrrolo[2,3-d]pyrimidin-4-yl)amino]cyclohexyl}methanesulfonamide], the figures for the IC50 in experiment [1] (whole blood from beagles) and in experiment [1] (whole blood from mixed breed dogs) were 0.0663 µM and 0.138 µM, respectively.

For `CNS(=O)(=O)C[C@H]1CC[C@H](N(C)c2ncnc3[nH]ccc23)CC1.O=C(O)/C=C\C(=O)O` [Example 1b, N-methyl-1-{trans-4-[methyl(7H-pyrrolo[2,3-d]pyrimidin-4-yl)amino]cyclohexyl}methanesulfonamide maleic acid salt], the “pruritus as compared to placebo (seconds of pruritus per 4 hour recording)” value in the experiment with flea allergic dogs (0.25 mg/kg orally twice a day, days 1, 4 and 12) is “Significant reductions”; in the experiment on flea allergic dogs (0.5 mg/kg orally twice a day, days 1 and 20), “Significant reductions”. Besides, in the experiment with flea allergic dogs (0.5 mg/kg orally twice a day for 28 days, flea allergic dogs), the “Lesions and erythema (VAS)” value is recorded as “significantly reduced”.

With `CN(c1ncnc2[nH]ccc12)[C@H]1CC[C@H](CS(=O)(=O)NC2CCC2)CC1` [Example 2, N-cyclobutyl-1-{trans-4-[methyl(7H-pyrrolo[2,3-d]pyrimidin-4-yl)amino]cyclohexyl}methanesulfonamide], the IC50 in experiment [1] (whole blood from beagles) came out at 0.41 µM.
